Source: patent US20220259593A1, “CONTROL OF MAMMALIAN GENE DOSAGE USING CRISPR” (The Regents of the University of California, priority 2019, published 2022)

What was measured:
K562 CRISPRi cells [1] = assay: Perturb-seq pooled growth measurement (sgRNA counts, growth phenotype γ, relative activity); type: cell-based, human; conditions: for gamma_day5 / gamma_day10: pooled growth phenotype γ of the Perturb-seq sgRNA; for gamma_day5: day 5, K562 CRISPRi cells; for gamma_day10: day 10, K562 CRISPRi cells; for relative_activity_day5: γ relative to perfectly matched sgRNA (_00) of the same gene, day 5
In short: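 sgRNA abundance was sequenced from genomic DNA of the same transduced population sampled on days two, seven and twelve. Phenotype γ compares normalized day seven and twelve counts with day two. Day-seven values (five days of growth) define relative sgRNA activity.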

K562 CRISPRi cells [2] = assay: as above; type: cell-based, human; conditions: γ relative to perfectly matched sgRNA (_00) of the same gene, day 10

Substance | gamma_day5 (K562 CRISPRi cells [1]) | gamma_day10 (K562 CRISPRi cells [1]) | relative_activity_day5 (K562 CRISPRi cells [1]) | relative_activity_day10 (K562 CRISPRi cells [2])
EIF2S1_ −_67827080.23-P1P2_07 (guide GAGCGAAGCGCTCGCTGAGG; listed as DNA, chemistry not fully specified) | −0.08307 | −0.04004 | 0.09182 | 0.07767
GATA1 −_48645022.23-P1P2_12 (guide GTGAGCTTGCCACATCCGCA; listed as DNA, chemistry not fully specified) | −0.1084 | −0.06327 | 0.1126 | 0.1028
GATA1_ −_48645022.23-P1P2_00 (guide GTGAGCTTGCCACATCCCCA; listed as DNA, chemistry not fully specified) | −0.9627 | −0.6153 | 1 | 1
GATA1_ −_48645022.23-P1P2_03 (guide GTGCGCTTGCCACATCCCCA; listed as DNA, chemistry not fully specified) | −0.9855 | −0.6259 | 1.024 | 1.017
GATA1_ −_48645022.23-P1P2_04 (guide GTGAGCTTACCACATCCCCA; listed as DNA, chemistry not fully specified) | −0.9313 | −0.6032 | 0.9673 | 0.9804
GATA1_ −_48645022.23-P1P2_06 (guide GTGAGCTTGCGACATCCCCA; listed as DNA, chemistry not fully specified) | −0.5073 | −0.3486 | 0.5269 | 0.5666
GATA1_ −_48645022.23-P1P2_08 (guide GTGAGCTTTCCACATCCCCA; listed as DNA, chemistry not fully specified) | −0.7632 | −0.4893 | 0.7928 | 0.7953
GINS1_ −_25388381.23-P1P2_00 (guide GGACTAGAACGAAAGGAGTG; listed as DNA, chemistry not fully specified) | −0.9993 | −0.7125 | 1 | 1
GINS1_ −_25388381.23-P1P2_03 (guide GGACTATAACGAAAGGAGTG; listed as DNA, chemistry not fully specified) | −0.7467 | −0.4797 | 0.7472 | 0.6733
GINS1_ −_25388381.23-P1P2_06 (guide GGACTAGAACGGAAGGAGTG; listed as DNA, chemistry not fully specified) | −0.9794 | −0.6548 | 0.9801 | 0.9191
GINS1_ −_25388381.23-P1P2_08 (guide GGACTAGAGCGAAAGGAGTG; listed as DNA, chemistry not fully specified) | −1.039 | −0.6723 | 1.039 | 0.9436
GINS1_ −_25388381.23-P1P2_14 (guide GGACTAGAACGAAAGGAGCG; listed as DNA, chemistry not fully specified) | −0.3535 | −0.2609 | 0.3537 | 0.3662
GNB2L1_ + _180670873.23-P1P2_00 (guide GTGCAAGGCGGCGGCAGGAG; listed as DNA, chemistry not fully specified) | −0.2908 | −0.3054 | 1 | 1
GNB2L1_ + _180670873.23-P1P2_02 (guide GTGCAAGACGGCGGCAGGAG; listed as DNA, chemistry not fully specified) | −0.1438 | −0.1273 | 0.4945 | 0.4167
GNB2L1_ + _180670873.23-P1P2_07 (guide GTGCAAGGCGGGGGCAGGAG; listed as DNA, chemistry not fully specified) | −0.38 | −0.2733 | 1.307 | 0.8948
GNB2L1_ + _180670873.23-P1P2_08 (guide GTGCAAGGTGGCGGCAGGAG; listed as DNA, chemistry not fully specified) | −0.3061 | −0.3155 | 1.052 | 1.033
GNB2L1_ + _180670873.23-P1P2_13 (guide GTGCAAGGCGGCGGCGGGAG; listed as DNA, chemistry not fully specified) | −0.2097 | −0.2074 | 0.7211 | 0.6791

Substance | gamma_day5 (K562 CRISPRi cells [1]) | gamma_day10 (K562 CRISPRi cells [1]) | relative_activity_day5 (K562 CRISPRi cells [1]) | relative_activity_day10 (K562 CRISPRi cells [2])
HSPA5_ + _128003624.23-P1P2_00 (guide GAGCCGAGTAGGCGACGGTG; listed as DNA, chemistry not fully specified) | −0.7476 | −0.4272 | 1 | 1
HSPA5_ + _128003624.23-P1P2_01 (guide GAACCGAGTAGGCGACGGTG; listed as DNA, chemistry not fully specified) | −0.6373 | −0.3748 | 0.8525 | 0.8774
HSPA5_ + _128003624.23-P1P2_04 (guide GAGCCGAGAAGGCGACGGTG; listed as DNA, chemistry not fully specified) | −0.7544 | −0.4225 | 1.009 | 0.989
HSPA5_ + _128003624.23-P1P2_06 (guide GAGCCGAGTAGACGACGGTG; listed as DNA, chemistry not fully specified) | −0.1192 | −0.09835 | 0.1594 | 0.2302
HSPA5_ + _128003624.23-P1P2_08 (guide GAGCCGAGTGGGCGACGGTG; listed as DNA, chemistry not fully specified) | −0.7566 | −0.4435 | 1.012 | 1.038
HSPA9_ −_137911079.23-P1P2_00 (guide GGAGCTGCGCGATGCGGTGG; listed as DNA, chemistry not fully specified) | −0.95 | −0.5892 | 1 | 1
HSPA9_ −_137911079.23-P1P2_02 (guide GGAGTTGCGCGATGCGGTGG; listed as DNA, chemistry not fully specified) | −0.6504 | −0.4027 | 0.6846 | 0.6835
HSPA9_ −_137911079.23-P1P2_04 (guide GGAGCTGCGCAATGCGGTGG; listed as DNA, chemistry not fully specified) | −0.2005 | −0.1657 | 0.211 | 0.2813
HSPA9_ −_137911079.23-P1P2_07 (guide GGAGCTGCGGGATGCGGTGG; listed as DNA, chemistry not fully specified) | −0.8109 | −0.5036 | 0.8537 | 0.8547
HSPA9_ −_137911079.23-P1P2_08 (guide GGAGCTGCTCGATGCGGTGG; listed as DNA, chemistry not fully specified) | −0.3582 | −0.2762 | 0.3771 | 0.4688
HSPE1_ + _198365089.23-P1P2_00 (guide GGAGACTCGCAGTCCGGCCC; listed as DNA, chemistry not fully specified) | −0.7018 | −0.5672 | 1 | 1
HSPE1_ + _198365089.23-P1P2_01 (guide GGAGACACGCAGTCCGGCCC; listed as DNA, chemistry not fully specified) | −0.616 | −0.4834 | 0.8777 | 0.8523
HSPE1_ + _198365089.23-P1P2_02 (guide GGAGACTGGCAGTCCGGCCC; listed as DNA, chemistry not fully specified) | −0.4365 | −0.3565 | 0.622 | 0.6285
HSPE1_ + _198365089.23-P1P2_03 (guide GGTGACTCGCAGTCCGGCCC; listed as DNA, chemistry not fully specified) | −0.6427 | −0.465 | 0.9158 | 0.8198
HSPE1_ + _198365089.23-P1P2_14 (guide GGAGACTCGCAGTCCTGCCC; listed as DNA, chemistry not fully specified) | −0.2088 | −0.1965 | 0.2975 | 0.3465
MTOR_ + _11322547.23-P1P2_00 (guide GGGCAGGGGGCCTGAAGCGG; listed as DNA, chemistry not fully specified) | −0.6872 | −0.5618 | 1 | 1
